Test results taken from ChEMBL document CHEMBL2177026, “Acyl guanidine inhibitors of β-secretase (BACE-1): optimization of a micromolar hit to a nanomolar lead via iterative solid- and solution-phase library synthesis” (J Med Chem, 2012).
The source made the active and inactive calls. The rule behind the calls is not given here.

How the values were obtained:
[1] = Plasma concentration in rat at 40 mg/kg, sc preadministered with ABT measured after 5 hrs by LC/MS/MS analysis; assay type: ADME, organism-based; design: dose 40 mg/kg, route subcutaneous
[2] = Drug uptake in rat brain at 15 mg/kg, sc after 5 hrs by LC/MS/MS analysis; assay type: ADME, organism-based; design: dose 15 mg/kg, route subcutaneous; settings: read-out: Drug uptake
[3] = target: T1, Beta-secretase 1 (Homo sapiens, UniProt P56817); assay: Ratio of IC50 for BACE1 in HEK293 cells expressing APP 695 Swedish mutant to Ki for BACE1; assay type: cell-based
T1 sequence (P56817 whole entry): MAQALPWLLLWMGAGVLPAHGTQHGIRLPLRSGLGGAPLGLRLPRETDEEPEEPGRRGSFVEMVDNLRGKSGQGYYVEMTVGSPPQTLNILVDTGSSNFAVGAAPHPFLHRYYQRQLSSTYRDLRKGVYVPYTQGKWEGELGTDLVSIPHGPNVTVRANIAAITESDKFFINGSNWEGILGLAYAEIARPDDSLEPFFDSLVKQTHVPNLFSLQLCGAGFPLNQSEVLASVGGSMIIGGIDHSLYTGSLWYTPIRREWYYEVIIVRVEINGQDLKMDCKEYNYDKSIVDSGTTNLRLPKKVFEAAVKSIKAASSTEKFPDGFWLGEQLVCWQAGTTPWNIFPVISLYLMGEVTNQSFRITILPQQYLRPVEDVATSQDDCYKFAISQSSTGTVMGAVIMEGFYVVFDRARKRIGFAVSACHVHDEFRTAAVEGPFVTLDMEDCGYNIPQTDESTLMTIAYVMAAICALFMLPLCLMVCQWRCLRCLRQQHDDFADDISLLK

[4] = target: T1, Beta-secretase 1; assay: Displacement of [3H]BMS-599240 from BACE1 expressed in HEK293 cells; assay type: cell-based
[5] = Drug uptake in rat CSF at 15 mg/kg, sc after 5 hrs by LC/MS/MS analysis; assay type: ADME, organism-based, Cerebrospinal fluid; design: dose 15 mg/kg, route subcutaneous; settings: read-out: Drug uptake
[6] = tested on: Rattus norvegicus; assay: Antialzheimer activity in rat assessed as amyloid beta (1 to 40) level in CSF at 5 mg/kg, sc measured after 5 hrs by ELISA relative to control; assay type: functional; settings: route subcutaneous
[7] = target: T1, Beta-secretase 1; assay: Inhibition of BACE1 in human HEK293 cells expressing APP 695 Swedish mutant assessed as inhibition of amyloid beta (1 to 40) production after overnight incubation by ELISA; assay type: cell-based
[8] = target: T1, Beta-secretase 1; assay: Inhibition of BACE1 in human KBV1 cells expressing APP 751 Swedish mutant assessed as inhibition of amyloid beta (1 to 40) production after overnight incubation by ELISA in presence of tariquidar; assay type: cell-based
[9] = tested on: Rattus norvegicus; assay: Antialzheimer activity in rat assessed as amyloid beta (1 to 40) level in plasma at 15 mg/kg, sc measured after 5 hrs by ELISA relative to control; assay type: functional; settings: route subcutaneous
[10] = Drug uptake in rat brain at 5 mg/kg, sc measured after 5 hrs by LC/MS/MS analysis; assay type: ADME, organism-based; design: dose 5 mg/kg, route subcutaneous; settings: read-out: Drug uptake
[11] = Plasma concentration in rat at 5 mg/kg, sc measured after 5 hrs by LC/MS/MS analysis; assay type: ADME, organism-based; design: dose 5 mg/kg, route subcutaneous
[12] = Plasma concentration in rat at 15 mg/kg, sc after 5 hrs by LC/MS/MS analysis; assay type: ADME, organism-based; design: dose 15 mg/kg, route subcutaneous
[13] = tested on: Rattus norvegicus; assay: Antialzheimer activity in sc dosed rat assessed as reduction in amyloid beta (1 to 40) level in plasma measured after 5 hrs by ELISA relative to control; assay type: functional, organism-based
[14] = target: T2, Cathepsin E (Homo sapiens) (UniProt P14091); assay: Inhibition of cathepsin E by radioligand binding assay
T2 sequence (whole entry): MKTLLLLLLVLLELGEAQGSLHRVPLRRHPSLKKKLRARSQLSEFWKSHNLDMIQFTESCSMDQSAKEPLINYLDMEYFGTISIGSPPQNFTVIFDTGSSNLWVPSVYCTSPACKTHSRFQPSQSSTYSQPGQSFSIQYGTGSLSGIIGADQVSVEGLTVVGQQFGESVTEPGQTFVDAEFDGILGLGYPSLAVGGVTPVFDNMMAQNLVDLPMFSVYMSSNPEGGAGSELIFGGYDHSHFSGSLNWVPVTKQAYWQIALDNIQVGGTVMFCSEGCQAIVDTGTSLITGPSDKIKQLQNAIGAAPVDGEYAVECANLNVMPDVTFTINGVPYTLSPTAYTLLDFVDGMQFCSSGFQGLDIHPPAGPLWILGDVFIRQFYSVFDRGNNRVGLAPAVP

[15] = tested on: Rattus norvegicus; assay: Antialzheimer activity in rat assessed as amyloid beta (1 to 40) level in plasma at 5 mg/kg, sc measured after 5 hrs by ELISA relative to control; assay type: functional; settings: route subcutaneous
[16] = tested on: Rattus norvegicus; assay: Antialzheimer activity in rat assessed as amyloid beta (1 to 40) level in brain at 15 mg/kg, sc measured after 5 hrs by ELISA relative to control; assay type: functional; settings: route subcutaneous
[17] = target: Cathepsin D (Homo sapiens) (UniProt P07339); assay: Inhibition of cathepsin D by radioligand binding assay
Sequence of Cathepsin D (Homo sapiens) (P07339 65-162 limits assumed): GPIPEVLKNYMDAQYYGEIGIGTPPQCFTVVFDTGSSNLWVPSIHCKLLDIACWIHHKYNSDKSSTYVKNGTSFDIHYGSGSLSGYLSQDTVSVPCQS
Sequence of Cathepsin D (Homo sapiens) (P07339 169-412 limits assumed): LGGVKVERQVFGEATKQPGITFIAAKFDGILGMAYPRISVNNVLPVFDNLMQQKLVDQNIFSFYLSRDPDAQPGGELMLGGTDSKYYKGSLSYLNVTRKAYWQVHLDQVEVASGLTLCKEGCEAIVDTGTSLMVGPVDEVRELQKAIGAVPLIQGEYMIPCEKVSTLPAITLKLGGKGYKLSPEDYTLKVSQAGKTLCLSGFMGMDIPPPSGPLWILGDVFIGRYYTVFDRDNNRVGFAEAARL

[18] = Drug uptake in rat brain at 40 mg/kg, sc preadministered with ABT measured after 5 hrs by LC/MS/MS analysis; assay type: ADME, organism-based; design: dose 40 mg/kg, route subcutaneous; settings: read-out: Drug uptake
[19] = target: T1, Beta-secretase 1; assay: Ratio of IC50 for BACE1 in human KBV1 cells expressing APP 751 Swedish mutant in absence of tariquidar to IC50 for BACE1 in human KBV1 cells expressing APP 751 Swedish mutant in presence of tariquidar; assay type: cell-based
[20] = Drug uptake in rat CSF at 5 mg/kg, sc measured after 5 hrs by LC/MS/MS analysis; assay type: ADME, organism-based, Cerebrospinal fluid; design: dose 5 mg/kg, route subcutaneous; settings: read-out: Drug uptake
[21] = target: T1, Beta-secretase 1; assay: Inhibition of BACE1 in human KBV1 cells expressing APP 751 Swedish mutant assessed as inhibition of amyloid beta (1 to 40) production after overnight incubation by ELISA in absence of tariquidar; assay type: cell-based
[22] = target: Voltage-gated inwardly rectifying potassium channel KCNH2 (Homo sapiens, UniProt Q12809); assay: Activity at human ERG channel by fluorescence-based thallium flux assay
Sequence of Voltage-gated inwardly rectifying potassium channel KCNH2 (Q12809 whole entry): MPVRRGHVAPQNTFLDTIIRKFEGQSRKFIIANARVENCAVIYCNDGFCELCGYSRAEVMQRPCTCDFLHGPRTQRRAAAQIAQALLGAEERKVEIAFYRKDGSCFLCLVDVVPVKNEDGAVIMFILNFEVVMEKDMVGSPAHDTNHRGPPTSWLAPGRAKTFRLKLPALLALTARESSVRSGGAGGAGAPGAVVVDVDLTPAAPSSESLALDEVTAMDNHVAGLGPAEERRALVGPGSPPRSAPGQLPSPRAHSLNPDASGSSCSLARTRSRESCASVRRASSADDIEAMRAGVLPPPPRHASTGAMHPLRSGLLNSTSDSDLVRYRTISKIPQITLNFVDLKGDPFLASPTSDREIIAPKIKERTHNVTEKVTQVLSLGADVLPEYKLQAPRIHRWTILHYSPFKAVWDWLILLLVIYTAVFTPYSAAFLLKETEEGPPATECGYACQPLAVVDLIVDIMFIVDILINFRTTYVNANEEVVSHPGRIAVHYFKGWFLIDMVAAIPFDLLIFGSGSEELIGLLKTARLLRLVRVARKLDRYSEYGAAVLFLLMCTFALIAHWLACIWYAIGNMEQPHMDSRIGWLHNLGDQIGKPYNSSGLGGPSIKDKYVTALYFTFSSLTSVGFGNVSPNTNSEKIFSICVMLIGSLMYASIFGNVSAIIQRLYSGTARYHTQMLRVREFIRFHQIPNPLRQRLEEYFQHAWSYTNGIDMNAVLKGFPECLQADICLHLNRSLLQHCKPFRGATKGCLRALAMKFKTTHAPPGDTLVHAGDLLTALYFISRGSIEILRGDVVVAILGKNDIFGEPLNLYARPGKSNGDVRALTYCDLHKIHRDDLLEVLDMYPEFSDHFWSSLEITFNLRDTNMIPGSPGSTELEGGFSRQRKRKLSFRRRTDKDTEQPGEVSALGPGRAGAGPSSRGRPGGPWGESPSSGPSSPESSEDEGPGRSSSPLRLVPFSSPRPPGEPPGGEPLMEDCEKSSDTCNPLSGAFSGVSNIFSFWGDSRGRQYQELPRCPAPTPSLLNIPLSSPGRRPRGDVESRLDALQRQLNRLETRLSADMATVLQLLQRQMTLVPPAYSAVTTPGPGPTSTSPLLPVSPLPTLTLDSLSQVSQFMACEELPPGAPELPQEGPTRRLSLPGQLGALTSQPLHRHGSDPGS

[23] = tested on: Rattus norvegicus; assay: Antialzheimer activity in rat assessed as amyloid beta (1 to 40) level in brain at 40 mg/kg, sc preadministered with ABT measured after 5 hrs by ELISA relative to control; assay type: functional; settings: route subcutaneous
[24] = Inhibition of pepsin by radioligand binding assay
[25] = Drug uptake in rat CSF at 40 mg/kg, sc preadministered with ABT measured after 5 hrs by LC/MS/MS analysis; assay type: ADME, organism-based, Cerebrospinal fluid; design: dose 40 mg/kg, route subcutaneous; settings: read-out: Drug uptake
[26] = tested on: Rattus norvegicus; assay: Antialzheimer activity in rat assessed as amyloid beta (1 to 40) level in CSF at 40 mg/kg, sc preadministered with ABT measured after 5 hrs by ELISA relative to control; assay type: functional; settings: route subcutaneous
[27] = tested on: Rattus norvegicus; assay: Antialzheimer activity in rat assessed as amyloid beta (1 to 40) level in brain at 5 mg/kg, sc measured after 5 hrs by ELISA relative to control; assay type: functional; settings: route subcutaneous
[28] = tested on: Rattus norvegicus; assay: Antialzheimer activity in rat assessed as amyloid beta (1 to 40) level in CSF at 15 mg/kg, sc measured after 5 hrs by ELISA relative to control; assay type: functional; settings: route subcutaneous
[29] = tested on: Rattus norvegicus; assay: Antialzheimer activity in rat assessed as amyloid beta (1 to 40) level in plasma at 40 mg/kg, sc preadministered with ABT measured after 5 hrs by ELISA relative to control; assay type: functional; settings: route subcutaneous

What does the source list for COc1ccc(-c2nsc(C)c2C(=O)/N=C(\N)NCc2cc(C)c(NC(=O)CN3CCC3)c(Cl)c2)cc1?
concentration at 5 h [1]: 6640 nM; concentration at 5 h [2]: 320 nM; Ratio [3]: 1; Ki [4]: 5 nM; concentration at 5 h [5]: 8 nM; Activity [6]: 105%; IC50 [7]: 5 nM; IC50 [8]: 5 nM; Activity [9]: 8%; concentration at 5 h [10]: 89 nM; concentration at 5 h [11]: 378 nM; concentration at 5 h [12]: 1170 nM; Activity [13]: Dose-dependent effect; inhibition [14]: inactive; Activity [15]: 18%; Activity [16]: 102%; inhibition [17]: inactive; concentration at 5 h [18]: 586 nM; Ratio IC50 [19]: 36; concentration at 5 h [20]: 4 nM; IC50 [21]: 180 nM; Activity [22]: Not Active; Activity [23]: 94%; inhibition [24]: inactive; concentration at 5 h [25]: 39 nM; Activity [26]: 82%; Activity [27]: 89%; Activity [28]: 98%; Activity [29]: 4%
